In brackets after ≈: the same amount, converted by molar mass. Where two headings read alike, the source gives them in different places.
Columns and labels:
Assay type in all cases: cell-based
[1] = test system: L. donovani axenic amastigotes; experiment: Antileishmanial Alamar Blue assay, axenic amastigotes; conditions: Leishmania donovani; for IC50: read-out: L. donovani Amastigote IC50; for IC90: read-out: L. donovani Amastigote IC90
Excerpt: (§1) The in vitro antileishmanial and antitrypanosomal assays were done on cell cultures of L. donovani promastigotes, axenic amastigotes, THP1-amastigotes, and Trypanosoma brucei trypomastigotes by Alamar Blue assays. The conditions for seeding the THP1 cells, exposure to the test samples, and evaluation of cytotoxicity were the same as described in parasite-rescue and transformation assay. IC50 and IC90 values were computed from the dose response curves using XLfit software (XLfit 5.3.1, IDBS analytical, Boston MA, USA). DFMO (difluoromethylornithine) was used as the positive control. The antiprotozoal activity of C. villosus extracts and isolated compounds were evaluated in vitro against L. donovani promastigotes, axenic amastigotes, and intracellular amastigotes in THP1 cells. The extracts and some isolated compounds were also evaluated against T. brucei trypomastigote forms. All the extracts and compounds were simultaneously tested against THP1 cell for determination of general cytotoxicity. The extracts and isolated compounds were also evaluated for their antimalarial activity against chloroquine-sensitive (D6, Sierra Leone) and chloroquine-resistant strains (W2, Indochina) strains of Plasmodium falciparum. Furthermore, they were tested for cytotoxicity against the Vero cell line.

[2] = test system: Candida albicans; experiment: Antifungal assay C. albicans; conditions: pure compounds
Method: (§2) Extracts and pure compounds were tested for their antimicrobial activity against Staphylococcus aureus, methicillin-resistant S. aureus (MRSA), Escherichia coli, Pseudomonas aeruginosa, and Mycobacterium intracellulare. The antifungal activities were evaluated against a panel of pathogenic fungi, including Candida albicans, C. glabrata, C. krusei, Aspergillus fumigatus, and Cryptococcus neoformans, associated with opportunistic infections.

[3] = test system: Aspergillus fumigatus; experiment: Antifungal assay A. fumigatus; conditions: pure compounds
Method: as §2

[4] = test system: HepG2 cells; experiment: Cellular antioxidant activity (CAA) assay
Method: The cellular antioxidant activity was measured in HepG2 cells as described by Wolfe and Rui. The antioxidant activity was expressed in terms of CAA units. The area under the curve (AUC) of fluorescence versus time plot was used to calculate CAA units as described by Wolfe and Rui.

[5] = test system: methicillin-resistant S. aureus (MRSA); experiment: Antibacterial assay MRSA; conditions: Staphylococcus aureus, pure compounds
Method: as §2

[6] = test system: Trypanosoma brucei trypomastigotes; experiment: Antitrypanosomal Alamar Blue assay; conditions: for IC50 / IC90: Table 4; for IC50: read-out: T. brucei IC50; for IC90: read-out: T. brucei IC90
Excerpt: as §1

[7] = test system: L. donovani promastigotes; experiment: Antileishmanial Alamar Blue assay, promastigotes; conditions: Leishmania donovani; for IC50: read-out: L. donovani Promastigote IC50; for IC90: read-out: L. donovani Promastigote IC90
Excerpt: as §1

[8] = test system: Escherichia coli; experiment: Antibacterial assay E. coli; conditions: pure compounds
Method: as §2

[9] = test system: Pseudomonas aeruginosa; experiment: Antibacterial assay P. aeruginosa; conditions: pure compounds
Method: as §2

[10] = test system: L. donovani intracellular amastigotes in THP1 cells; experiment: Antileishmanial assay, intracellular amastigotes in THP1 cells; conditions: Leishmania donovani; for IC50: THP-1, read-out: L. donovani Amastigote/THP1 IC50; for IC90: THP-1, read-out: L. donovani Amastigote/THP1 IC90
Excerpt: as §1

[11] = test system: Staphylococcus aureus; experiment: Antibacterial assay S. aureus; conditions: pure compounds
Method: as §2

[12] = test system: Cryptococcus neoformans; experiment: Antifungal assay C. neoformans; conditions: pure compounds
Method: as §2

[13] = test system: THP1 cells; experiment: THP1 cytotoxicity
Excerpt: as §1

[14] = THP1 cytotoxicity; conditions: human
Excerpt: as §1

[15] = test system: iNOS; experiment: Inhibition of iNOS (intracellular NO production) in RAW 264.7 macrophages; conditions: Mus musculus, RAW264.7; RAW 264.7 cells; NA = no activity at 25 µg/mL (pure compounds) or 100 µg/mL (extracts)
Method: The extracts and isolated compounds of C. villosus were evaluated in terms of their interaction with cellular targets related to inflammation and metabolic disorders, such as iNOS and NF-κB. The inhibition of intracellular NO production as a result of iNOS activity was assayed in mouse macrophages (RAW 264.7cells). Cytotoxicity of test samples to macrophages was also determined in parallel to check if the inhibition of iNOS was due to cytotoxic effects.

[16] = test system: NF-κB; experiment: Reporter gene assay for the inhibition of NF-κB; conditions: PMA-treated cells, luciferase reporter; NA = no activity at 25 µg/mL (pure compounds) or 100 µg/mL (extracts); read-out: Inhibition of NF-kB IC50
Method: Reporter gene assay for the inhibition of NF-κB Activity was performed as described earlier. In brief, cells transfected with NF-κB luciferase plasmid construct were plated in 96-well plates at a density of 1.25 × 10^5 cells/well. After 24 h, cells were treated with the test compounds and, after incubating for 30 min, phorbol 12-myristate 13-acetate (PMA) (Sigma-Aldrich, Burlington MA, USA) (70 ng/mL) was added and further incubated for 6−8 h. Luciferase activity was measured as described above. Percent decrease in luciferase activity was calculated relative to the vehicle control. Parthenolide (Sigma-Aldrich, Burlington MA, USA) was used as a positive control.

[17] = Cytotoxicity assay (neutral red) SK-MEL; conditions: human, SK-MEL cells, NA = No activity at 100 μM
Method: (§3) Each assay was performed in 96-well tissue culture-treated microplates. […] All cell lines were obtained from the American Type Culture Collection (ATCC, Rockville, MD, USA). Each assay was performed in 96-well tissue culture-treated microplates. Cells were seeded at a density of 25,000 cells/well and incubated for 24 h. Samples at different concentrations were added and cells were again incubated for 48 h. At the end of incubation, the cell viability was determined using neutral red dye according to a modification of the procedure of Borenfreund et al.. IC50 values were determined from dose−response curves of percent growth inhibition against test concentrations. Doxorubicin was used as a positive control, while DMSO was used as the negative (vehicle) control.

[18] = Cytotoxicity assay (neutral red) SK-OV-3; conditions: human, SK-OV-3 cells, NA = No activity at 100 μM
Method: as §3

[19] = Cytotoxicity assay (neutral red) KB; conditions: human, KB cells, NA = No activity at 100 μM
Method: as §3

[20] = Cytotoxicity assay (neutral red) LLC-PK1; conditions: pig, LLC-PK1 cells (noncancerous kidney cells), NC = Not cytotoxic
Method: as §3

[21] = Cytotoxicity assay (neutral red) BT-549; conditions: human, BT-549 cells, NA = No activity at 100 μM
Method: as §3

C[C@@H]1O[C@@H](O[C@@H]2[C@@H](O)[C@H](O)[C@@H](CO)O[C@H]2c2c(O)cc(O)c3c(=O)cc(-c4ccc(O)c(O)c4)oc23)[C@H](O)[C@H](O)[C@H]1O [Compound 4, 2″-O-α-L-rhamnosylorientin]
IC50 [1]: > 10 µM
IC90 [1]: > 10 µM
IC50 [2]: > 20 µg/mL
IC50 [3]: > 20 µg/mL
% Decrease in Oxidative Stress ([4]; concentration 250 µg/mL): 28%
% Decrease in Oxidative Stress ([4]; concentration 500 µg/mL): 29%
% Decrease in Oxidative Stress ([4]; concentration 1000 µg/mL): 36%
IC50 [5]: > 20 µg/mL
IC50 ([6]; Trypanosoma brucei): > 10 µM
IC90 ([6]; Trypanosoma brucei): > 10 µM
T. brucei IC50 ([6]; as given in the text): didn’t show an effect
IC50 [7]: > 10 µM
IC90 [7]: > 10 µM
IC50 [8]: > 20 µg/mL
IC50 [9]: > 20 µg/mL
IC50 [10]: > 10 µM
IC90 [10]: > 10 µM
IC50 [11]: > 20 µg/mL
IC50 [12]: > 20 µg/mL
THP1 Cytotoxicity C90 [13]: >10 µM
IC50 ([14]; THP1 cells, read-out: THP1 Cytotoxicity IC50): > 10 µM

NCCCC(N)(C(=O)O)C(F)F (centres unmarked) [DFMO, difluoromethylornithine, reference compound]
IC50 [6]: 3.63 µM
IC90 [6]: 8.8 µM

C=C1C(=O)O[C@H]2[C@H]1CC/C(C)=C/CC[C@@]1(C)O[C@@H]21 [Parthenolide, reference compound]
IC50 [15]: 0.2 µg/mL (≈ 0.805 µM)
IC50 [16]: 1.63 µg/mL (≈ 6.56 µM)

N=C(N)c1ccc(OCCCCCOc2ccc(C(=N)N)cc2)cc1 [Pentamidine, reference compound]
IC50 [1]: 9.58 µM
IC90 [1]: > 10 µM
IC50 ([6]; Trypanosoma brucei): 0.001 µM
IC90 ([6]; Trypanosoma brucei): 0.002 µM
IC50 [7]: 1.48 µM
IC90 [7]: 2.38 µM
IC50 [10]: 1.16 µM
IC90 [10]: 5.59 µM
THP1 Cytotoxicity C90 ([13]; human): >10 µM
IC50 [14]: > 10 µM

O=c1c(O)c(-c2ccc(O)c(O)c2)oc2cc(O)cc(O)c12 [Quercetin, reference compound]
% Decrease in Oxidative Stress ([4]; 25 µM): 77%

COc1cccc2c1C(=O)c1c(O)c3c(c(O)c1C2=O)C[C@@](O)(C(=O)CO)C[C@@H]3O[C@H]1C[C@H](N)[C@H](O)[C@H](C)O1 [doxorubicin, Doxorubicin]
IC50 at 48 h [17]: 0.8 µg/mL (≈ 1.47 µM)
IC50 at 48 h [18]: 2 µg/mL (≈ 3.68 µM)
IC50 at 48 h [19]: 1.3 µg/mL (≈ 2.39 µM)
IC50 at 48 h [20]: 1.2 µg/mL (≈ 2.21 µM)
IC50 at 48 h [21]: 0.9 µg/mL (≈ 1.66 µM)

— publication PMC6920997, “Total Phenolic and Flavonoid Content and Biological Activities of Extracts and Isolated Compounds of Cytisus villosus Pourr” (Biomolecules, 2019)
